Assay results: PubChem BioAssay AID743355 (Broad Institute, 2014)
The source made the active and inactive calls.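 The calls were made as follows: active = signal drop with a fitted AC50 at or under twice the sample's highest valid dose; inconclusive = flat fit with signal down 30 to 70%, or poor fit; inactive = the rest, including signal rising.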

Test system: not listed separately
Assay: A549 cell cytotoxicity, dose response, cytotoxicity control, luminescence, dry powder, set 9 (AID 743355)
Settings: A549 viability, CellTiter-Glo ATP luminescence, 72 h; at 12 µM (top of the series)

Row | Structure (SMILES) | normalized CellTiter-Glo signal change (more negative = more cytotoxic)
1 | N#Cc1ccc(N2CCN(C(=O)c3ccc4c(c3)OCO4)CC2)cc1 | -5.47% (inactive)

Same assay, conditions: A549 viability, CellTiter-Glo ATP luminescence, 72 h; at 26 µM (top of the series)

Row | Structure (SMILES) | normalized CellTiter-Glo signal change (more negative = more cytotoxic)
2 | O=C(c1ccc2c(c1)OCO2)N1CCN(c2ccc(C(F)(F)F)cc2)CC1 | 1.09% (inactive)
3 | CC(=O)c1ccc(N2CCN(C(=O)c3cc4c(cc3Cl)OCO4)CC2)cc1 | 2.51% (inactive)
4 | CC(=O)c1ccc(N2CCN(S(=O)(=O)c3ccc4c(c3)OCO4)CC2)cc1 | -10.1% (inactive)
5 | CN(C)S(=O)(=O)c1ccc(N2CCN(C(=O)c3ccc4c(c3)OCO4)CC2)cc1 | -6.83% (inactive)
6 | CC(=O)c1ccc(N2CCN(C(=O)c3cccc4c3OCO4)CC2)cc1 | 2.91% (inactive)
7 | CC(=O)c1ccc(N2CCN(C(=O)c3ccc4ocnc4c3)CC2)cc1 | 4.94% (inactive)
8 | CC(=O)c1ccc(N2CCN(C(=O)c3ccc4snnc4c3)CC2)cc1 | -3.89% (inactive)
9 | CS(=O)(=O)c1ccc(N2CCN(C(=O)c3ccc4c(c3)OCO4)CC2)cc1 | -1.14% (inactive)
10 | COc1ccc(C(=O)N2CCN(c3ccc(C(C)=O)cc3)CC2)cc1OC | 51.5% (inactive)
11 | CC(=O)c1ccc(N2CCN(C(=O)c3cc4c(cc3C)OCO4)CC2)cc1 | 1.8% (inactive)
12 | CC(=O)c1ccc(N2CCCN(C(=O)c3ccc4c(c3)OCO4)CC2)cc1 | 9.8% (inactive)
13 | O=C(c1ccc2c(c1)OCO2)N1CCN(c2ccc(S(=O)(=O)C(F)(F)F)cc2)CC1 | 21.5% (inactive)
14 | COc1cc2c(cc1C(=O)N1CCN(c3ccc(C(C)=O)cc3)CC1)OCO2 | -2.21% (inactive)
15 | CC(=O)c1ccc(N2CCN(C(=O)Nc3ccc4c(c3)OCO4)CC2)cc1 | -14.7% (inactive)
16 | CC(=O)c1ccc(N2CCN(C(=O)c3cc(Cl)c4c(c3)OCO4)CC2)cc1 | 6.94% (inactive)
17 | O=C(c1ccc2c(c1)OCO2)N1CCN(c2ccc(OC(F)(F)F)cc2)CC1 | 6.83% (inactive)
18 | CC(=O)c1ccc(N2CCN(C(=O)c3ccc(Cl)c(Cl)c3)CC2)cc1 | 5.05% (inactive)
19 | CC(=O)c1ccc(N2CCN(C(=O)c3cc4c(cn3)OCO4)CC2)cc1 | -11.9% (inactive)
20 | O=C(c1ccc2c(c1)OCO2)N1CCN(c2ccc(S(=O)(=O)C(F)F)cc2)CC1 | 17.7% (inactive)
21 | CC(=O)c1ccc(N2CCN(C(=O)c3ccc4c(c3C)OCO4)CC2)cc1 | -3.63% (inactive)
22 | CC(=O)c1ccc(N2CCN(C(=O)c3ccc4c(c3)OC(C)(C)O4)CC2)cc1 | 5.78% (inactive)
23 | CC(=O)c1ccc(N2CCN(C(=O)c3ccc4c(c3)OC(F)(F)O4)CC2)cc1 | -2.42% (inactive)
24 | CC(=O)c1ccc(N2CC3CC2CN3C(=O)c2ccc3c(c2)OCO3)cc1 (stereo unspecified) | -9.16% (inactive)
25 | CC(=O)c1ccc(N2CCN(C(=O)c3ccc4c(c3)OCO4)CC2)cc1 | -7.97% (inactive)

Test system: A549 viability, CellTiter-Glo ATP luminescence, 72 h
Assay: as above
Settings: not given

Row | Structure (SMILES) | AC50
26 | COc1cc(C(=O)N2CCN(c3ccc(C(C)=O)cc3)CC2)cc2c1OCO2 | > 52 µM (inactive)
